Here are results for 29 molecules from paper PMC8286840, “Identifying SARS-CoV-2 antiviral compounds by screening for small molecule inhibitors of Nsp3 papain-like protease” (Biochemical Journal, 2021).

Where a name gives a salt, the structure may show the parent alone. Read-outs that look alike come from different tables or passages of the source.

The target in assay [1] is T1, SARS-CoV-2 PLpro (nsp3 1564–1878) (Severe acute respiratory syndrome coronavirus 2, UniProt P0DTD1). Nature of the assay: biochemical. Details: FRET-quenched peptide (Pro3) cleavage by PLpro, 10 min pre-incubation, slope over 20 min, normalised to no-compound control. Conditions: low concentration screen, read-out: % of control remaining.
In assay [2] the target is T1, SARS-CoV-2 PLpro (nsp3 1564–1878). In words: biochemical. Details: FRET-quenched peptide (Pro3) cleavage by PLpro, 10 min pre-incubation, slope over 20 min, normalised to no-compound control. Conditions: high concentration screen, read-out: % of control remaining.

Regarding `C[C@@H]1O[C@@H](O[C@H]2C[C@@H](O)[C@]3(CO)[C@H]4[C@H](O)C[C@]5(C)[C@@H](C6COC(=O)C6)CC[C@]5(O)[C@@H]4CC[C@]3(O)C2)[C@H](O)[C@H](O)[C@H]1O` (some centres unmarked) [Dihydroouabain], in assay [1] (Well no.=539), the remaining activity at 1.25 µM was determined as 91.5%. For the same molecule, the remaining activity at 3.75 µM in assay [2] (Well no.=539) was found to be 93.8%.

Consider `CCCCCCCCCCCCCCC[C@@H](O)[C@@H](N)CO` [Dihydrosphingosine], for which, in assay [1] (Well no.=4399), the remaining activity at 1.25 µM turned out to be 101%. In addition, the remaining activity at 3.75 µM in assay [2] (Well no.=4399) was found to be 96.6%.

Regarding `CC1CNC(=O)NC1=O` (centres unmarked) [Dihydrothymine], the remaining activity at 1.25 µM in assay [1] (Well no.=8392) was found to be 100%. In addition, in assay [2] (Well no.=8392), the remaining activity at 3.75 µM turned out to be 92.8%.

Regarding `c1ccc2c(Cc3c[nH]c4ccccc34)c[nH]c2c1` [Diindolylmethane], the remaining activity at 1.25 µM in assay [1] (Well no.=3516) came out at 102%; in assay [1] (Well no.=4509), 88.9%. Further, the values for the remaining activity at 3.75 µM in assay [2] (Well no.=3516) and in assay [2] (Well no.=4509) were 104% and 92.4%, respectively.

On to `COc1cc(C(=O)OCCCN2CCCN(CCCOC(=O)c3cc(OC)c(OC)c(OC)c3)CC2)cc(OC)c1OC` [Dilazep hydrochloride], for which, in assay [1] (Well no.=595), the remaining activity at 1.25 µM was 103%. Also, in assay [2] (Well no.=595), the remaining activity at 3.75 µM was determined as 106%.

For `COc1cc(C(=O)OCCCN2CCCN(CCCOC(=O)c3cc(OC)c(OC)c(OC)c3)CC2)cc(OC)c1OC` [Dilazep], the remaining activity at 1.25 µM in assay [1] (Well no.=1931) was 100%. Moreover, in assay [2] (Well no.=1931), the remaining activity at 3.75 µM amounted to 99.9%.

As to `COc1ccc([C@@H]2Sc3ccccc3N(CCN(C)C)C(=O)[C@@H]2OC(C)=O)cc1` [Diltiazem], the remaining activity at 1.25 µM in assay [1] (Well no.=1713) was 104%. Besides, the remaining activity at 3.75 µM in assay [2] (Well no.=1713) is 102%.

For `Cc1ccc2c(c1)[C@]13CCCC[C@@H]1[C@H](C2)N(C)CC3` [Dimemorfan (phosphate)], in assay [1] (Well no.=8523), the remaining activity at 1.25 µM was 106%. Besides, the remaining activity at 3.75 µM in assay [2] (Well no.=8523) was 103%.

On to `O=S(=O)(O)CCSSCCS(=O)(=O)O` [Dimesna], for which the remaining activity at 1.25 µM in assay [1] (Well no.=5105) was 104%. For the same molecule, in assay [2] (Well no.=5105), the remaining activity at 3.75 µM was 105%.

As for `COC(=O)/C=C/C(=O)OC` [Dimethyl Fumarate], in assay [1] (Well no.=5294), the remaining activity at 1.25 µM amounted to 93.6%. The remaining activity at 3.75 µM in assay [2] (Well no.=5294) amounted to 94.2%.

Regarding `CCc1cnn2c(NCc3ccc[n+]([O-])c3)cc(N3CCCC[C@H]3CCO)nc12` [Dinaciclib (SCH727965)], in assay [1] (Well no.=5081), the remaining activity at 1.25 µM was 99.7%. Besides, the remaining activity at 3.75 µM in assay [2] (Well no.=5081) was determined as 105%.

`CCCCC[C@H](O)/C=C/[C@@H]1[C@@H](C/C=C\CCCC(=O)O)[C@@H](O)C[C@H]1O` [Dinoprost (tromethamine salt)]: the remaining activity at 1.25 µM in assay [1] (Well no.=6475) turned out to be 104%. Besides, the remaining activity at 3.75 µM in assay [2] (Well no.=6475) was found to be 105%.

Take `CCCCC[C@H](O)/C=C/[C@@H]1[C@@H](C/C=C\CCCC(=O)O)[C@@H](O)C[C@H]1O` [Dinoprost]: in assay [1] (Well no.=1667), the remaining activity at 1.25 µM worked out at 99.9%. The remaining activity at 3.75 µM in assay [2] (Well no.=1667) is 101%.

On to `C[C@@H]1CC[C@@]2(OC1)O[C@H]1C[C@H]3[C@@H]4CC=C5C[C@@H](O)CC[C@]5(C)[C@H]4CC[C@]3(C)[C@H]1[C@@H]2C` [Diosgenin], for which the remaining activity at 1.25 µM in assay [1] (Well no.=5192) was 96.6%. Further, in assay [2] (Well no.=5192), the remaining activity at 3.75 µM amounted to 94.9%.

For the molecule `COc1ccc(-c2cc(=O)c3c(O)cc(O)cc3o2)cc1O` [Diosmetine], in assay [1] (Well no.=3573), the remaining activity at 1.25 µM was 97.4%. The remaining activity at 3.75 µM in assay [2] (Well no.=3573) came out at 97.7%.

Regarding `COc1ccc(-c2cc(=O)c3c(O)cc(O[C@@H]4O[C@H](CO[C@@H]5O[C@@H](C)[C@H](O)[C@@H](O)[C@H]5O)[C@@H](O)[C@H](O)[C@H]4O)cc3o2)cc1O` [Diosmin], in assay [1] (Well no.=3597), the remaining activity at 1.25 µM came to 95.3%. Further, the remaining activity at 3.75 µM in assay [2] (Well no.=3597) was found to be 97.4%.

In the case of `C[N+]1(C)CCC(=C(c2ccccc2)c2ccccc2)CC1` [Diphemanil Methylsulfate], the remaining activity at 1.25 µM in assay [1] (Well no.=5118) turned out to be 109%. Also, the remaining activity at 3.75 µM in assay [2] (Well no.=5118) amounted to 108%.

Consider `OC(CCCN1CCCCC1)(c1ccccc1)c1ccccc1` [Diphenidol (hydrochloride)], for which the remaining activity at 1.25 µM in assay [1] (Well no.=7621) was found to be 102%. Moreover, the remaining activity at 3.75 µM in assay [2] (Well no.=7621) worked out at 102%.

Take `Cc1cc(-c2ccc(N=Nc3c(S(=O)(=O)O)cc4cc(S(=O)(=O)O)cc(N)c4c3O)c(C)c2)ccc1N=Nc1c(S(=O)(=O)O)cc2cc(S(=O)(=O)O)cc(N)c2c1O` [Diphenyl Blue]: the remaining activity at 1.25 µM in assay [1] (Well no.=7598) was determined as 89.8%. Further, the remaining activity at 3.75 µM in assay [2] (Well no.=7598) was 89.2%.

With `c1ccc2c(c1)[I+]c1ccccc1-2` [Diphenyleneiodonium chloride], the remaining activity at 1.25 µM in assay [1] (Well no.=591) is 99.6%. In addition, the remaining activity at 3.75 µM in assay [2] (Well no.=591) worked out at 105%.

Turning to `CN1CCC(OC(c2ccccc2)c2ccccc2)CC1` [Diphenylpyraline (hydrochloride)], the remaining activity at 1.25 µM in assay [1] (Well no.=6853) turned out to be 100%. In assay [2] (Well no.=6853), the remaining activity at 3.75 µM is 102%.

As to `Cn1c(=O)c2c(ncn2CC(O)CO)n(C)c1=O` (centres unmarked) [Diphylline], the remaining activity at 1.25 µM in assay [1] (Well no.=7387) was 106%; in assay [1] (Well no.=8273), 101%. In addition, the remaining activity at 3.75 µM was 105% in assay [2] (Well no.=7387) and 98.7% in assay [2] (Well no.=8273).

For the molecule `CCCN(CCC)CCc1ccc(O)c(O)c1` [Dipropyldopamine hydrobromide], in assay [1] (Well no.=684), the remaining activity at 1.25 µM worked out at 98.3%. Besides, the remaining activity at 3.75 µM in assay [2] (Well no.=684) worked out at 98.3%.

Regarding `CC[C@H](C)[C@H](N)C(=O)N1CCC[C@H]1C(=O)N[C@H](C(=O)O)[C@@H](C)CC` [Diprotin A (TFA)], the remaining activity at 1.25 µM in assay [1] (Well no.=8464) stood at 104%. Also, the remaining activity at 3.75 µM in assay [2] (Well no.=8464) was 101%.

For `CC(C)=CCC[C@](C)(O)[C@H]1CC[C@]2(C)[C@@H]1CC[C@@H]1[C@@]3(C)CCC(=O)C(C)(C)[C@@H]3CC[C@]12C` [Dipterocarpol], in assay [1] (Well no.=3204), the remaining activity at 1.25 µM amounted to 105%. The remaining activity at 3.75 µM in assay [2] (Well no.=3204) was 106%.

With `OCCN(CCO)c1nc(N2CCCCC2)c2nc(N(CCO)CCO)nc(N3CCCCC3)c2n1` [Dipyridamole], the figures for the remaining activity at 1.25 µM in assay [1] (Well no.=682) and in assay [1] (Well no.=1863) were 103% and 95.1%, respectively. In addition, the remaining activity at 3.75 µM in assay [2] (Well no.=682) amounted to 100%; in assay [2] (Well no.=1863) it was 94.7%.

With `O=c1ccn([C@@H]2O[C@H](COP(=O)(O)OP(=O)(O)OP(=O)(O)OP(=O)(O)OC[C@H]3O[C@@H](n4ccc(=O)[nH]c4=O)[C@H](O)[C@@H]3O)[C@@H](O)[C@H]2O)c(=O)[nH]1` [Diquafosol (tetrasodium)], the remaining activity at 1.25 µM in assay [1] (Well no.=8837) turned out to be 101%. In addition, the remaining activity at 3.75 µM in assay [2] (Well no.=8095) came out at 100%; in assay [2] (Well no.=8837) it was 87.9%.

For `O=C(O)c1cc(=O)c2c(OCC(O)COc3cccc4oc(C(=O)O)cc(=O)c34)cccc2o1` [Disodium Cromoglycate], the remaining activity at 1.25 µM in assay [1] (Well no.=1857) was 102%. Besides, in assay [2] (Well no.=1857), the remaining activity at 3.75 µM is 100%.

With `CC(C)N(CCC(C(N)=O)(c1ccccc1)c1ccccn1)C(C)C` (centres unmarked) [Disopyramide phosphate salt], the remaining activity at 1.25 µM in assay [1] (Well no.=5508) was found to be 105%. For the same molecule, in assay [2] (Well no.=5508), the remaining activity at 3.75 µM stood at 103%.
